The values that follow are results of earlier work, collected in patent US6365216B1, “Particles of N-[N-(3,3-dimethylbutyl)-L-α-aspartyl]-L-phenylalanine 1-methyl ester” (The NutraSweet Company, priority 1999, dated 2002).

For this series the following is noted: times sweeter than sugar (sucrose).

Regarding `COC(=O)C(Cc1ccccc1)NC(=O)C(CC(=O)O)NCCC(C)(C)C` [neotame, N-[N-(3,3-dimethylbutyl)-L-α-aspartyl]-L-phenylalanine 1-methyl ester], the sweetness potency result is recorded as “about 8000 X”.
